Source: patent US20240270741A1 (Cogent Biosciences, Inc., priority 2023, published 2024)

What follows are compounds tested against FGFR2 (Homo sapiens, UniProt P21802) (assay: FGFR wild type enzyme assay (HTRF KinEASE-TK), FGFR2). Details: Enz FGFR2 (nM), FGFR2 wild type enzyme assay.
Sequence of FGFR2 (P21802 399-821 limits assumed): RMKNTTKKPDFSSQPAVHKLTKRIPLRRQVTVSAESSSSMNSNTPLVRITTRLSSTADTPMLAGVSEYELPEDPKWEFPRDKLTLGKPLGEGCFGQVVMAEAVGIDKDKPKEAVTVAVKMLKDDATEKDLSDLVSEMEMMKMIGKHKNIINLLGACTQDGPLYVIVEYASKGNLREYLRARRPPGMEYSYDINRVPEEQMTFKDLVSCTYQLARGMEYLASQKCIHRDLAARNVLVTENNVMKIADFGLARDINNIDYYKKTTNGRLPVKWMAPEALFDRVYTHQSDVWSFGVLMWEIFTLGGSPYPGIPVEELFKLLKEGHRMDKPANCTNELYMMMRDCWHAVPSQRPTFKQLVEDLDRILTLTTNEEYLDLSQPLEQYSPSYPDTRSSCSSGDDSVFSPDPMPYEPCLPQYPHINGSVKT

| Compound | IC50 [nM] |
| --- | --- |
| Cc1c(-c2cc(Sc3ccc(F)cc3C#N)c3c(C#N)cnn3c2)cnn1[C@H]1CNC(C)(C)C1 [Example 440, (R)-4-((2-cyano-4-fluorophenyl)thio)-6-(1-(5,5-dimethylpyrrolidin-3-yl)-5-methyl-1H-pyrazol-4-yl)pyrazolo[1,5-a]pyridine-3-carbonitrile] | 2 |
| Cc1nn([C@H]2CC[C@H](O)CC2)cc1-c1cc(Sc2ccccc2C#N)c2c(C#N)cnn2c1 [Example 441, 4-((2-cyanophenyl)thio)-6-(1-((1r,4r)-4-hydroxycyclohexyl)-3-methyl-1H-pyrazol-4-yl)pyrazolo[1,5-a]pyridine-3-carbonitrile] | 3 |
| Cc1nn([C@H]2CC[C@H](O)CC2)cc1-c1cc(Sc2ncccc2F)c2c(C#N)cnn2c1 [Example 442, 4-((3-fluoropyridin-2-yl)thio)-6-(1-((1r,4r)-4-hydroxycyclohexyl)-3-methyl-1H-pyrazol-4-yl)pyrazolo[1,5-a]pyridine-3-carbonitrile] | 8 |
| Cc1nn([C@H]2CC[C@H](O)CC2)cc1-c1cc(Sc2ccc(F)cc2C#N)c2c(C#N)cnn2c1 [Example 443, 4-((2-cyano-4-fluorophenyl)thio)-6-(1-((1r,4r)-4-hydroxycyclohexyl)-3-methyl-1H-pyrazol-4-yl)pyrazolo[1,5-a]pyridine-3-carbonitrile] | 4 |
| N#Cc1cc(F)ccc1Sc1cc(-c2cnn(C3CCN(C(=O)CO)CC3)c2)cn2ncc(C#N)c12 [Example 445, 4-((2-cyano-4-fluorophenyl)thio)-6-(1-(1-(2-hydroxyacetyl)piperidin-4-yl)-1H-pyrazol-4-yl)pyrazolo[1,5-a]pyridine-3-carbonitrile] | 1 |
| CC(C)n1cc(-c2cc(Sc3ncccc3F)c3c(C#N)cnn3c2)cn1 [Example 449, 4-((3-fluoropyridin-2-yl)thio)-6-(1-isopropyl-1H-pyrazol-4-yl)pyrazolo[1,5-a]pyridine-3-carbonitrile] | 2 |
| CC(=O)N1CC[C@H](n2cc(-c3cc(Sc4ncccc4F)c4c(C#N)cnn4c3)cn2)C1 [Example 450, (S)-6-(1-(1-acetylpyrrolidin-3-yl)-1H-pyrazol-4-yl)-4-((3-fluoropyridin-2-yl)thio)pyrazolo[1,5-a]pyridine-3-carbonitrile] | 1 |
| N#Cc1cnn2cc(-c3cnn([C@H]4CCN(C(=O)CO)C4)c3)cc(Sc3ncccc3F)c12 [Example 451, (S)-4-((3-fluoropyridin-2-yl)thio)-6-(1-(1-(2-hydroxyacetyl)pyrrolidin-3-yl)-1H-pyrazol-4-yl)pyrazolo[1,5-a]pyridine-3-carbonitrile] | 1 |

Other lines, results leading:

| IC50 [nM] | Compound |
| --- | --- |
| 1 | Cc1c(-c2cc(Sc3ccc(F)cc3C#N)c3c(C#N)cnn3c2)cnn1[C@@H]1CNC(C)(C)C1 [Example 439, (S)-4-((2-cyano-4-fluorophenyl)thio)-6-(1-(5,5-dimethylpyrrolidin-3-yl)-5-methyl-1H-pyrazol-4-yl)pyrazolo[1,5-a]pyridine-3-carbonitrile] |
| 0.3 | CC(=O)N1CCC(n2cc(-c3cc(Sc4ccccc4C#N)c4c(C#N)cnn4c3)cn2)CC1 [Example 444, 6-(1-(1-acetylpiperidin-4-yl)-1H-pyrazol-4-yl)-4-((2-cyanophenyl)thio)pyrazolo [1,5-a]pyridine-3-carbonitrile] |
| 0.5 | N#Cc1ccccc1Sc1cc(-c2cnn(C3CCN(C(=O)CO)CC3)c2)cn2ncc(C#N)c12 [Example 446, 4-((2-cyanophenyl)thio)-6-(1-(1-(2-hydroxyacetyl)piperidin-4-yl)-1H-pyrazol-4-yl)pyrazolo[1,5-a]pyridine-3-carbonitrile] |
| 0.4 | C[C@@H](O)C(=O)N1CCC(n2cc(-c3cc(Sc4ccccc4C#N)c4c(C#N)cnn4c3)cn2)CC1 [Example 447] |
| 0.3 | C[C@H](O)C(=O)N1CCC(n2cc(-c3cc(Sc4ccccc4C#N)c4c(C#N)cnn4c3)cn2)CC1 [Example 448, (S)-4-((2-cyanophenyl)thio)-6-(1-(1-(2-hydroxypropanoyl)piperidin-4-yl)-1H-pyrazol-4-yl)pyrazolo[1,5-a]pyridine-3-carbonitrile] |
